Among the test systems are TK-10 renal; RPMI-8226 leukemia; HS 578T breast; EKVX NSCLC; HCT-116 colon; MDA-MB-435; 786-0 renal; A498 renal; SF-295 CNS; MDA-N; SK-MEL-2 melanoma.
Assay in all cases: NCI tumour cell line growth inhibition, 48 h

The structures appear in SMILES notation.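 Each compound was tested at five concentrations against cells in 96-well plates for 48 hours. The concentration for 50% growth inhibition is given as GI50. TGI is the concentration that stops growth completely.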 Where a SMILES comes first, the peptide text is derived from it. [ ]: non-standard residue; d: D form. The star is where a group is joined. ξ: configuration not given here. ξF = NC(Cc1ccccc1)C(=O)O; Cbz = O=C(OCc1ccccc1)*; Aib = CC(C)(N)C(=O)O Some results are limits rather than exact numbers.

On to `COc1cc(Nc2nnc3n2S(=O)(=O)c2cc(C)c(Cl)cc2S3)cc(OC)c1`, for which the TGI with TK-10 renal was 81.3 µM; in the experiment on RPMI-8226 leukemia, 95.7 µM; in the experiment with HS 578T breast, 66.9 µM; in the experiment with EKVX NSCLC, over 100 µM; in the experiment on HCT-116 colon, over 100 µM; in the experiment on MDA-MB-435, over 100 µM. Besides, the TGI in the experiment on 786-0 renal is 20.5 µM; in the experiment on A498 renal it was 85.8 µM; in the experiment with SF-295 CNS it was 68.7 µM; in the experiment on MDA-N, over 100 µM.

With `C(=N\OCCc1ccccc1)/c1cccnc1`, the TGI in the experiment on TK-10 renal, in the experiment with SK-MEL-2 melanoma, with RPMI-8226 leukemia, with HS 578T breast, in the experiment on EKVX NSCLC and in the experiment with HCT-116 colon was over 100 µM each time. Besides, the TGI in the experiment with MDA-MB-435, in the experiment with 786-0 renal, in the experiment with SF-295 CNS and in the experiment with MDA-N was over 100 µM in each case.

As to `COC(=O)C(C)(C)NC(=O)C(Cc1ccccc1)NC(=O)C(C)(C)NC(=O)OCc1ccccc1` (centres undefined) (Cbz-[Aib]-[ξF]-[Aib]-OMe), the TGI in the experiment on TK-10 renal, in the experiment on RPMI-8226 leukemia, in the experiment on EKVX NSCLC, in the experiment on HCT-116 colon, in the experiment with MDA-MB-435 and in the experiment with A498 renal was over 100 µM throughout. Further, the TGI with SF-295 CNS and in the experiment with MDA-N was over 100 µM throughout.

On to `Cc1ccc(C(O)(c2ccc(C)cc2)c2ccccn2)cc1`, for which the TGI in the experiment with TK-10 renal, in the experiment on SK-MEL-2 melanoma, with RPMI-8226 leukemia, in the experiment on EKVX NSCLC, with HCT-116 colon and in the experiment with 786-0 renal was over 100 µM throughout. In addition, the TGI with A498 renal and in the experiment on SF-295 CNS was over 100 µM in each case.

As to `CC(C)(C)c1cc(OCc2nnc3sc(=S)[nH]n23)c(Cl)cc1OCc1nnc2sc(=S)[nH]n12`, the TGI with TK-10 renal was 99.8 µM; in the experiment on SK-MEL-2 melanoma, 58.9 µM; with RPMI-8226 leukemia it was over 100 µM; with HS 578T breast it was over 100 µM; in the experiment with EKVX NSCLC, 85.4 µM; in the experiment on HCT-116 colon, 50.6 µM. The TGI with MDA-MB-435 is 55.1 µM; in the experiment on 786-0 renal it was 95 µM; in the experiment with A498 renal it was 88.7 µM; in the experiment with SF-295 CNS it was over 100 µM; in the experiment on MDA-N, 40.6 µM.

Consider `COc1cc(-c2n/c(=C\c3c(O)[nH]c4cc(Cl)ccc34)cc3c2=Nc2ccccc2-3)cc(OC)c1OC`, for which the GI50 was 2.34 µM in the experiment on TK-10 renal; 2.51 µM with SK-MEL-2 melanoma; 67.1 µM in the experiment on RPMI-8226 leukemia; 2.51 µM in the experiment on HS 578T breast; 4.99 µM in the experiment with EKVX NSCLC; 3.48 µM in the experiment on HCT-116 colon. Moreover, the GI50 with MDA-MB-435 is 6.39 µM; in the experiment with A498 renal it was 7.12 µM; with SF-295 CNS it was 2.17 µM. Also, the TGI in the experiment with TK-10 renal was 5.26 µM; with SK-MEL-2 melanoma it was 12.3 µM; in the experiment with RPMI-8226 leukemia, over 100 µM; in the experiment on HS 578T breast it was 19 µM; in the experiment on EKVX NSCLC, 27.1 µM; in the experiment on HCT-116 colon, 13.7 µM. Further, the TGI in the experiment on MDA-MB-435 is 51.3 µM; in the experiment on A498 renal, 27.9 µM; in the experiment on SF-295 CNS, 5.19 µM.

Regarding `COC1=CC(=O)c2c(c(COP(=O)(N(C)CCBr)N(C)CCBr)cn2C)C1=O`, the TGI is 0.496 µM in the experiment with TK-10 renal; 0.315 µM in the experiment with SK-MEL-2 melanoma; 0.441 µM with RPMI-8226 leukemia; 2.93 µM with HS 578T breast; 0.578 µM in the experiment on EKVX NSCLC; 0.222 µM in the experiment on MDA-MB-435. The TGI in the experiment with 786-0 renal worked out at 0.349 µM; in the experiment with A498 renal it was 0.964 µM; with SF-295 CNS, 0.366 µM; in the experiment with MDA-N, 0.274 µM.

Turning to `Nc1nc2ccc(OCC(O)CN3CCCCC3)cc2[n+]([O-])n1` (centres undefined), the TGI in the experiment on TK-10 renal, in the experiment on SK-MEL-2 melanoma, with RPMI-8226 leukemia, with HCT-116 colon, in the experiment on MDA-MB-435 and in the experiment with 786-0 renal was over 100 µM in each case. In addition, the TGI with A498 renal, in the experiment with SF-295 CNS and with MDA-N was over 100 µM in each case.

`CCOc1ccc(N=NS(=O)(=O)O)cc1`: the TGI with TK-10 renal, with SK-MEL-2 melanoma, with RPMI-8226 leukemia, with HS 578T breast, in the experiment with EKVX NSCLC and in the experiment on HCT-116 colon was over 100 µM each time. Besides, the TGI with MDA-MB-435, in the experiment on 786-0 renal, in the experiment with A498 renal, in the experiment with SF-295 CNS and in the experiment with MDA-N was over 100 µM in each case.

`Nc1c(-c2ccccc2[N+](=O)[O-])nc2ccccn12`: the TGI in the experiment on TK-10 renal, with SK-MEL-2 melanoma, with RPMI-8226 leukemia, with EKVX NSCLC, in the experiment on HCT-116 colon and in the experiment on SF-295 CNS was over 100 µM throughout.

As to `Clc1ccc(-c2ccc(-c3nnc(COc4ccc(OCc5nnc(-c6ccc(-c7ccc(Cl)cc7Cl)o6)o5)c(Cl)c4)o3)o2)c(Cl)c1`, the TGI in the experiment with TK-10 renal, in the experiment on SK-MEL-2 melanoma, with RPMI-8226 leukemia, in the experiment on HS 578T breast, in the experiment with EKVX NSCLC and with HCT-116 colon was over 100 µM in each case. The TGI in the experiment on MDA-MB-435, with 786-0 renal, in the experiment on A498 renal, in the experiment with SF-295 CNS and with MDA-N was over 100 µM throughout.

On to `CCCCOCc1cc(CN2CCN(C)CC2)c(O)c2ncccc12`, for which the TGI is over 100 µM in the experiment with TK-10 renal; over 100 µM with SK-MEL-2 melanoma; 26.3 µM in the experiment with RPMI-8226 leukemia; over 100 µM in the experiment with EKVX NSCLC; 87 µM in the experiment with HCT-116 colon; 50.7 µM in the experiment with 786-0 renal. In addition, the results for the TGI in the experiment on A498 renal and with SF-295 CNS were 78.9 µM and 33.5 µM, respectively.

Turning to `Cc1ccc(N2CCN(CCC(=O)O)CC2)cc1`, the TGI in the experiment on TK-10 renal, in the experiment on SK-MEL-2 melanoma, in the experiment with RPMI-8226 leukemia, in the experiment with HS 578T breast, in the experiment on EKVX NSCLC and in the experiment on HCT-116 colon was over 100 µM in each case. For the same molecule, the TGI with MDA-MB-435, in the experiment on 786-0 renal, with A498 renal and in the experiment with SF-295 CNS was over 100 µM each time.

With `C[CH2][Ge]([CH2]C)([CH2]C)[O]C(=O)CCC(=O)[O][Ge]([CH2]C)([CH2]C)[CH2]C`, the GI50 in the experiment with TK-10 renal was over 100 µM; in the experiment on SK-MEL-2 melanoma it was over 100 µM; in the experiment on RPMI-8226 leukemia it was 0.249 µM; in the experiment on EKVX NSCLC it was 20.5 µM; in the experiment on HCT-116 colon, 57.3 µM. The TGI in the experiment with TK-10 renal, in the experiment on SK-MEL-2 melanoma, in the experiment on RPMI-8226 leukemia, in the experiment with EKVX NSCLC and in the experiment with HCT-116 colon was over 100 µM each time.

Take `CC(C)(CCCCC(C)(C)C1NC(=O)N1)C1NC(=O)N1`: the TGI in the experiment on TK-10 renal, in the experiment on SK-MEL-2 melanoma, in the experiment on RPMI-8226 leukemia, in the experiment with HS 578T breast, with EKVX NSCLC and in the experiment on HCT-116 colon was over 10 µM in each case. The TGI in the experiment on MDA-MB-435, in the experiment on A498 renal, with SF-295 CNS and with MDA-N was over 10 µM throughout.

Take `CC(C)CC(NC(=O)C(Cc1ccccc1)NC(=O)C(Cc1c[nH]c2ccccc12)NC(=O)CNC(=O)C(N)Cc1ccc(O)cc1)C(=O)O` (centres undefined) (H-YGWFL-OH; configuration not given here): the TGI is over 100 µM with TK-10 renal; over 100 µM with SK-MEL-2 melanoma; 57.4 µM in the experiment with RPMI-8226 leukemia; over 100 µM in the experiment on HS 578T breast; 73.6 µM in the experiment with EKVX NSCLC; 70.6 µM in the experiment with HCT-116 colon. Further, the TGI in the experiment on MDA-MB-435 was over 100 µM; in the experiment with 786-0 renal, 49.4 µM; in the experiment with A498 renal it was 96 µM; with SF-295 CNS it was 88.6 µM; in the experiment on MDA-N it was over 100 µM.

Turning to `CCOC(=O)CCC(NC(=O)OCc1ccccc1)C(=O)NC(CCC(=O)OCC)C(=O)NNC(=O)OC(C)(C)C` (centres undefined), the TGI in the experiment with SK-MEL-2 melanoma, in the experiment on RPMI-8226 leukemia, in the experiment with HS 578T breast, with HCT-116 colon, in the experiment with MDA-MB-435 and with SF-295 CNS was over 100 µM each time. Moreover, the TGI in the experiment with MDA-N is over 100 µM.

As for `COc1cc(S(=O)(=O)Nc2ccc(-c3csc(N4C(=O)C(Cl)C4c4ccccc4)n3)cc2)ccc1Cl` (centres undefined), the TGI in the experiment on TK-10 renal was over 100 µM; in the experiment on SK-MEL-2 melanoma, over 100 µM; with RPMI-8226 leukemia, over 100 µM; in the experiment on HS 578T breast it was over 100 µM; in the experiment on EKVX NSCLC it was 94.4 µM; in the experiment on HCT-116 colon, over 100 µM. Moreover, the TGI with MDA-MB-435 was over 100 µM; in the experiment on 786-0 renal it was 49 µM; in the experiment on A498 renal it was 68.8 µM; in the experiment on SF-295 CNS, over 100 µM; with MDA-N it was over 100 µM.

The record behind these values is PubChem BioAssay (NCI).
